Read-outs that look alike come from different tables or passages of the source.
What was measured:
[1] = Rat pharmacokinetic study, second study (dose response); type: in vivo, rats; settings: plasma, po; for AUC(0-t) / Cmax / Tmax: Second Study; for concentration at 0 h / concentration at 0.5 h / concentration at 1 h / concentration at 2 h / concentration at 4 h / concentration at 6 h / concentration at 10 h: second study, read-out: plasma indibulin
Method: The second study was designed to determine the dose response of indibulin plasma concentration with the 10% A SDD formulation. In general, 10% A SDD was administered p.o. at 10, 15 and 20 mg/kg and plasma indibulin concentrations were determined at several time points.
All rats used in the second study were fasted 12 hours prior to dose, and food was returned 4 hours post dose. Indibulin in crystalline form was suspended in 0.5% Methocel A at 10 mg/kg, 15 mg/kg and 20 mg/kg by vortexing and sonicating. The indibulin SDD formulations were made by combining 10% active indibulin SDD at 10 mg/kg, 15 mg/kg and 20 mg/kg in a mortar with 0.5% Methocel A and using a pestle to gradually mix in to solution. There were six rats per group, all animals were weighed and the dose volume calculated so that each rat received the test article orally at a volume of 10 mL/kg. The first three rats in each group were bled at […], 2, and 6 hours post dose; the remaining three rats in each group were bled at 1, 4, and 10 hours post dose. For blood collection at all time points, all animals were anesthetized with an inhalation of 4% isoflurane and 1.5% oxygen; once it was determined that the animal was adequately anesthetized (no reaction to physical stimulation) using a capillary tube the orbital venous plexus was punctured and a volume of 1 mL of blood was collected in to a sodium heparin tube. Once the blood was collected the sodium heparin tube was inverted ten times, and placed on ice until centrifuged for 10 minutes at 2510 rpm. The plasma was decanted into labeled Eppendorfs and stored at −80° C. until analyzed by HPLC with MS/MS Detection. All data were acquired using Applied Biosystems/MDS-Sciex Analyst Version 1.5; processed, and reported using Watson Version 7.3.0.01TM, Thermo Fisher Scientific, Inc.; and are summarized in FIG. 13 and FIG. 14.

[2] = Suspension stability by microcentrifuge dissolution test; type: physicochemical; settings: dosed into MFDS
Method: Suspension stability of 10% A HPMCAS-H and 25% A HPMCAS-H formulations were evaluated using the microcentrifuge dissolution test, as detailed below.
First, a 0.5 wt % Methocel A (Methylcellulose, Methocel A4M Premium, DOW Chemical Company) vehicle was prepared and later used as the suspension vehicle. Specifically, this vehicle was prepared by adding 0.5 g of Methocel A to 30 mL deionized water at 90° C. and stirring until well dispersed. To the resultant dispersion was added 70 mL of water and the mixture was placed into an ice bath and stirred until Methocel A is dissolved.
A 20 mgA/mL indibulin SDD suspension of each of the 10% A HPMCAS-H and 25% A HPMCAS-H formulations was then prepared by adding the indibulin HPMCAS SDD to the aqueous 0.5 wt % Methocel A vehicle (as prepared above). Each suspension was then tested in the microcentrifuge dissolution test (as described above) immediately after constitution in the aqueous 0.5 wt % Methocel A vehicle (O-hour or Initial), and one hour after the constitution in the aqueous 0.5 wt % Methocel A vehicle. The stability of each suspension was determined by comparing the dissolution profile of the one-hour suspension to the performance of the initial suspension. […]

[3] = Membrane-permeation test; type: physicochemical; settings: feed MFDS, 37° C.
Method: The 10% A HPMCAS-H(HPMCAS high grade), 15% A HPMCAS-H, 20% A HPMCAS-H, 25% A HPMCAS-H, 25% A HPMCAS-M (HPMCAS medium grade) and 50% A HPMCAS-M SDD formulations were also evaluated in a membrane-permeation test at 37° C. in a temperature-controlled box. Test procedures were described, for example, in U.S. Pat. No. 7,611,630. For example, a membrane-permeation test of 10% A HPMCAS-H indibulin SDD was performed using the following procedures: • 1. Accurately weigh 1 mgA (10 mg of 10% A:HPMCAS-H SDD) into the outer-glass reservoir of the test apparatus. All samples are prepared in duplicates. • 2. Add 5 mL MFDS and start the timer. • 3. Cap each reservoir and vortex at medium setting for 1 minute. Stir at 100 rpm. • 4. After 9 minutes of addition of MFDS, add 5 mL of 80/20 (wt/wt) […]/Decane permeate to the inside of the membrane cells. • 5. After 1 minute (at 10 minutes) place a cell containing the permeate solution into the outer reservoir holding the feed/drug solution. Take a O-minute time point. Tilt the entire apparatus at a 45° angle to ensure that no air bubbles are trapped under the membrane. • 6. Place apparatus back on stir plate at 100 rpm. • 7. […]
This test assessed the rate of solubilized drug indibulin that passed through a synthetic membrane from aqueous MFDS to an aqueous immiscible organic sink solution. […]

[4] = cited from earlier work

O=C(Nc1ccncc1)C(=O)c1cn(Cc2ccc(Cl)cc2)c2ccccc12 [Bulk Crystalline Drug, indibulin]
AUC(0-t) ([1]; rat p.o. 10 mg/kg (60 mg/m^2)): 48 ng·h/mL
Cmax ([1]; rat p.o. 10 mg/kg (60 mg/m^2)): 8.6 ng/mL
Tmax ([1]; rat p.o. 10 mg/kg (60 mg/m^2)): 2 h
AUC(0-t) ([1]; rat p.o. 15 mg/kg (90 mg/m^2)): 146 ng·h/mL
Cmax ([1]; rat p.o. 15 mg/kg (90 mg/m^2)): 24 ng/mL
Tmax ([1]; rat p.o. 15 mg/kg (90 mg/m^2)): 4 h
AUC(0-t) ([1]; rat p.o. 20 mg/kg (120 mg/m^2)): 110 ng·h/mL
Cmax ([1]; rat p.o. 20 mg/kg (120 mg/m^2)): 21 ng/mL
Tmax ([1]; rat p.o. 20 mg/kg (120 mg/m^2)): 4 h
concentration at 0 h ([1]; rat p.o. 10 mg/kg): 0 ng/mL
concentration at 0.5 h ([1]; rat p.o. 10 mg/kg): 2 ng/mL
concentration at 1 h ([1]; rat p.o. 10 mg/kg): 4 ng/mL
concentration at 2 h ([1]; rat p.o. 10 mg/kg): 9 ng/mL
concentration at 4 h ([1]; rat p.o. 10 mg/kg): 4 ng/mL
concentration at 6 h ([1]; rat p.o. 10 mg/kg): 7 ng/mL
concentration at 10 h ([1]; rat p.o. 10 mg/kg): 2 ng/mL
concentration at 0 h ([1]; rat p.o. 15 mg/kg): 0 ng/mL
concentration at 0.5 h ([1]; rat p.o. 15 mg/kg): 10 ng/mL
concentration at 1 h ([1]; rat p.o. 15 mg/kg): 17 ng/mL
concentration at 2 h ([1]; rat p.o. 15 mg/kg): 17 ng/mL
concentration at 4 h ([1]; rat p.o. 15 mg/kg): 24 ng/mL
concentration at 6 h ([1]; rat p.o. 15 mg/kg): 7 ng/mL
concentration at 10 h ([1]; rat p.o. 15 mg/kg): 19 ng/mL
concentration at 0 h ([1]; rat p.o. 20 mg/kg): 0 ng/mL
concentration at 0.5 h ([1]; rat p.o. 20 mg/kg): 9 ng/mL
concentration at 1 h ([1]; rat p.o. 20 mg/kg): 12 ng/mL
concentration at 2 h ([1]; rat p.o. 20 mg/kg): 14 ng/mL
concentration at 4 h ([1]; rat p.o. 20 mg/kg): 21 ng/mL
concentration at 6 h ([1]; rat p.o. 20 mg/kg): 7 ng/mL
concentration at 10 h ([1]; rat p.o. 20 mg/kg): 6 ng/mL
Cmax90 ([2]; 20 mgA/mL suspension in 0.5 wt % Methocel A, hold time 0 hr): 2000 ng/mL
AUC90 ([2]; suspension hold time 0 hr): 150 µg·min/mL
Average Flux [3]: 0.10 μgA/cm^2 × min
solubility in water, methanol, ethanol or 2-propanol [4]: practically insoluble
